In patent US20220015355A1, “NOVEL CARRIER FLUIDS FOR LIQUID FUNGAL SPORE FORMULATIONS” (priority 2018, published 2022):
Read-outs that look alike come from different tables or passages of the source. Marks after values point to notes of the source that are not given here.

Experiments:
[1] = test system: Beauveria Bassiana spores; experiment: spore viability (germination rate on agar) of Beauveria bassiana spores in carrier fluid after storage at 30° C.; format: cell-based
Experimental: (§1) 1.5 g of Beauveria Bassiana pure spore powder were transferred into a formulation vessel (IKA Type DT-20 mixing vessel with dispersion tool for Ultra Turrax) using a sterile spoon. 13.5 mL of fluid were added into the respective formulation vessel and dispersed using ultra turrax tube drive control for 1 min at 3000 rpm; change direction after 30 sec. After this 2.8 mL were transferred in four sample bottles (Wheaton Serum vial, Type I) leaving little headspace and closed tight using crimpneck caps (Macherey—Nagel type N 13) Afterwards all sample bottles were transferred to an incubator set at 30° C. and stored for a given time.
(§2) In regular intervals a sample was retrieved from the storage location and analyzed for spore viability. Therefore the original samples were thoroughly homogenized. Aliquots of 0.25 g or […] of each sample are transferred into 50 mL falcon tubes. The tubes were filled up to 25 g using a sterile aqueous solution containing 2% Tween 80 and homogenized by vortexing to achieve the first dilution step (1:100 dilution). This dilution is used for further dilution and spotting on agar.
(§3) For evaluation of spore germination rate prepare a 1:15000 dilution based on the 1:100 dilution achieved by multiple automated dilution (pipetting robot, 96 well plate). Afterwards 12×12 cm agar plates are taken and spotted with 10 times […] of each sample using an automated 12-Channel pipet. Wait until liquid is soaked up by agar and transfer agar plate to an incubator and incubate at 20° C. for 17 hours. Open the plate and place it under the microscope. Randomly choose one area per spot and record the number of germinated and non-germinated spores that are within the designated field. At least 200 spores per sample need to be evaluated. If needed count more than one field per spot.

[2] = test system: Penicillium bilaii (ATCC 20851) spores; experiment: spore viability (germination rate on agar) of Penicillium bilaii spores in carrier fluid after storage at 30° C.; format: cell-based
Experimental: as §1, with “Penicillium bilaii (ATCC 20851)” for “Beauveria Bassiana”
as §2, §3

[3] = test system: P. lilacinum strain 251 spores; experiment: spore viability (germination rate on agar) of P. lilacinum spores in carrier fluid after storage at 30° C.; format: cell-based, Purpureocillium lilacinum; conditions: for decline in spore viability at day 1 and after storage: fluids not within the scope of the invention
Experimental: as §1, with “3” for “1.5”, “P. lilacinum strain 251” for “Beauveria Bassiana”, “12” for “13.5”
as §2
as §3, with “1:30000” for “1:15000”, “25°” for “20°”

[4] = test system: Isaria fumosorosea spores; experiment: spore viability of Isaria fumosorosea spores in carrier fluid after storage, Method 2 (flow cytometry); format: cell-based
Experimental: Method 2: 0.5 g of Isaria fumosoresea pure spore powder were transferred into an Erlenmeyer flask using a sterile spoon. 24.5 mL of fluid were dispersed using Ultra-Turrax (IKA; Type T 25 D) for 1 min at 3,000 rpm. After this, 2.0 mL were transferred in 20 sample bottles (Wheaton Serum vial, Type I) leaving little headspace and closed tight using crimpneck caps (Macherey—Nagel type N 13). Afterwards all sample bottles were transferred to an incubator set at 30° C. and stored for a given time.
In regular intervals a sample was retrieved from the storage location and analyzed for spore viability. For this purpose, the original samples were thoroughly homogenized. Aliquots of 0.5 g of each sample were transferred into 100 mL-Erlenmeyer flask. The flasks were filled up to 50 g using a sterile aqueous solution containing 0.1% Break Thru® 5240 (Evonik, Industries) and homogenized on a magnetic stirrer (Thermo Fisher Scientific: Cimarec™) at least for 15 min with 750 rpm to achieve the first dilution step (1:100 dilution). This dilution was used for further dilution.
Not all samples mixed well or mixed at all in 0.1% Break Thru 5240. For these samples, 500 μL Neo-wett (Kwizda Agro GmbH) and/or a small amount (knife tip) Metaupon®-OMT (LEUNA Tenside GmbH) were also added to the aqueous solution.
After homogenization 1 mL were transferred into a 1.5 mL tube and were centrifuged for 15 min at 14,000 rpm (Thermo Fisher Scientific, Type Megafuge 8R). The supernatant (=upper phase) was discarded by using a pipette. The tubes were filled up to 1 mL using a sterile aqueous solution containing 0.1% Neo-wett and homogenized by vortexing.
To assess fungal viability, a method based on flow cytometry was used.

[5] = test system: Isaria fumosorosea spores; experiment: spore viability of Isaria fumosorosea spores in carrier fluid after storage at 30° C., Method 1 (germination on agar); format: cell-based; conditions: Method 1
Experimental: as §1, with “Method 1: 1.5” for “1.5”, “Isaria fumosorosea” for “Beauveria Bassiana”
as §2
For evaluation of spore germination rate a 1:15000 dilution based on the 1:100 dilution achieved by multiple automated dilution (pipetting robot, 96 well plate) was prepared. Afterwards 12×12 cm agar plates were taken and spotted with 10 times 5 μL of each sample using an automated 12-Channel pipet. After all liquid is soaked up by agar the agar plates were incubated at 23° C. for 16 hours.

[6] = Purpureocillium lilacinum, 35 d
[7] = P. lilacinum strain 251 in the liquid, day 1

COCCOCCOCCO [Methoxytriglycol, Triethylenglycol monomethyl ether, reference compound]
spore viability [%] at day 1 ([1]; Beauveria bassiana, 1 d): 79.7% | spore viability [%] after 2 w (14 d) ([1]; Beauveria bassiana): 12.3% | spore viability [%] after 5 w (35 d) ([1]; Beauveria bassiana): 1.5% | decline in spore viability after storage under given conditions ([1]; Table III, fluids not within the scope of the invention): steep decline in spore viability | spore viability [%] 3 m@30° C. (83-85 d) ([2]; Penicillium bilaii): 30.3% | spore viability [%] 6 w@30° C. (41-43 d) ([2]; Penicillium bilaii): 43.1% | spore viability [%] initial (1-2 d) ([2]; Penicillium bilaii): 74.3% | spore viability [%] after 3 m (87-92 d) ([3]; Purpureocillium lilacinum): 19.9% | spore viability [%] at day 1 ([3]; Purpureocillium lilacinum, 1 d): 83.3% | spore viability [%] after 5 w (35 d) [3, 6]: 55.3% | decline in spore viability at day 1 and after storage ([3]; text summary of Table I): steep decline in spore viability

COCCOCCOCCOCCOC [Tetraglyme, Tetraethylenglycol diether]
spore viability [%] after 1 m (27-28 d) [3]: 94.8% | spore viability [%] after 2 m (51-55 d) [3]: 93.2% | spore viability [%] after 2 w (12-15 d) [3]: 97.6% | spore viability [%] after 7 m (210 d) [3]: 83.5% | spore viability [%] at day 1 [3]: 97.2% | spore viability after storage for 7 months at 30° C. (in words) ([3]; text summary of Table I): exceptional spore viability

COC(C)COC(C)CO (centres unmarked) [Dowanol DPM, Dipropylene Glycol monomethyl ether]
spore viability [%] at day 1 ([1]; Beauveria bassiana, day 1): 83.9% | spore viability [%] after 2 w (14 d) ([1]; storage at 30° C.): 61.0% | spore viability [%] after 5 w (35 d) ([1]; storage at 30° C.): 36.6% | spore viability [%] at day 1 [3, 7]: 91.0% | spore viability [%] after 2 w (12-15 d) ([3]; storage at 30° C., 12-15 d): 95.3% | spore viability [%] after 1 m (27-28 d) ([3]; storage at 30° C., 27-28 d): 93.3% | spore viability [%] after 2 m (51-55 d) ([3]; storage at 30° C., 51-55 d): 74.7%

Tween 80
spore viability [%] after 1 m (27 d) [4]: 72.0% | spore viability [%] after 2 w (~14 d) [4]: 76.4% | spore viability [%] at day 1 [4]: 96.2%

Polyethylenglycol- 300 [Pluriol E300]
spore viability [%] after 1 m (27 d) [4]: 87.0% | spore viability [%] after 3 months [4]: 45.0* % | spore viability [%] at day 1 [4]: 96.0%

CCCOCCO [Propylcellosolve, Ethylenglycolmonopropylether, reference compound]
spore viability [%] after 3 m (87-92 d) [3]: 0.6% | spore viability [%] after 5 w (35 d) [3]: 8.1% | spore viability [%] at day 1 [3]: 76.2% | decline in spore viability at day 1 and after storage ([3]; text summary of Table I): steep decline in spore viability

2-(2-Ethoxyethoxy)ethyl acetate; Diethylene glycol monoethyl ether acetate [n-Butyldiglycolacetat]
spore viability [%] at day 1 [3, 7]: 93.2% | spore viability [%] after 3 m (87-92 d) ([3]; storage at 30° C., 87-92 d): 82.7% | spore viability [%] after 5 w (35 d) ([3]; storage at 30° C., 35 d): 89.3%

COCC(C)OCC(C)OC (centres unmarked) [Proglyde DMM, Dipropylene glycol dimethyl ether]
spore viability [%] at day 1 ([1]; Beauveria bassiana, 1 d): 88.4% | spore viability [%] after 2 w (14 d) ([1]; Beauveria bassiana): 48.0% | spore viability [%] after 5 w (35 d) ([1]; Beauveria bassiana): 21.8% | spore viability [%] 3 m@30° C. (83-85 d) ([2]; Penicillium bilaii): 10.5% | spore viability [%] 6 w@30° C. (41-43 d) ([2]; Penicillium bilaii): 29.6% | spore viability [%] initial (1-2 d) ([2]; Penicillium bilaii): 54.6% | spore viability [%] after 3 m (87-92 d) ([3]; Purpureocillium lilacinum): 75.4% | spore viability [%] at day 1 ([3]; Purpureocillium lilacinum, 1 d): 98.8% | spore viability [%] after 5 w (35 d) [3, 6]: 96.0%

CCOCCOCCO [Carbitol, Diethylenglycolmonoethyl ether, reference compound]
spore viability [%] after 1 m (27 d) [4]: 12.0% | spore viability [%] after 2 w (~14 d) [4]: 13.7% | spore viability [%] at day 1 [4]: 78.0%

CCCCCCOCCO [Hexylcellosolve, Ethylenglycolmonohexylester, reference compound]
spore viability [%] after 3 m (87-92 d) [3]: 6.0% | spore viability [%] after 5 w (35 d) [3]: 27.4% | spore viability [%] at day 1 [3]: 79.5% | decline in spore viability at day 1 and after storage ([3]; text summary of Table I): steep decline in spore viability

Polyethylene glycol Monooleate [Alkamuls A]
spore viability [%] after 1 m (27 d) [4]: 90.7% | spore viability [%] after 2 w (~14 d) [4]: 93.0% | spore viability [%] at day 1 [4]: 94.4%

COC(C)COC(C)COC(C)=O (centres unmarked) [Dowanol DPMA, Dipropylene glycol methyl ether acetate]
spore viability [%] at day 1 ([5]; I. fumosorosea, day 1): 87.7% | spore viability [%] after 1 m (27 d) ([5]; storage at 30° C., 27 d): 63.6% | spore viability [%] after 7 m (210 d) ([5]; storage at 30° C., 210 d): 31.4% | spore viability [%] at day 1 [3, 7]: 99.1% | spore viability [%] after 3 m (87-92 d) ([3]; storage at 30° C., 87-92 d): 35.7% | spore viability [%] after 5 w (35 d) ([3]; storage at 30° C., 35 d): 93.0%

Tween 85
spore viability [%] after 2 months [2]: 92.0$ % | spore viability [%] initial (1-2 d) [2]: 99.0% | spore viability [%] after 1 m (27 d) [4]: 98.0% | spore viability [%] after 6 months [4]: 96.1*** % | spore viability [%] at day 1 [4]: 98.9% | spore viability after storage for 7 m at 30° C. [4]: ≥ 50%

CC(=O)OCC(C)OC(C)=O (centres unmarked) [Dowanol PGDA, Propylenglycol Diacetat]
spore viability [%] at day 1 ([1]; Beauveria bassiana, 1 d): 90.6% | spore viability [%] after 3 w (21 d) ([1]; Beauveria bassiana, 21 d): 51.6% | spore viability [%] 3 m@30° C. (83-85 d) ([2]; Penicillium bilaii): 36.4% | spore viability [%] 6 w@30° C. (41-43 d) ([2]; Penicillium bilaii): 69.3% | spore viability [%] initial (1-2 d) ([2]; Penicillium bilaii): 93.6% | spore viability [%] at day 1 ([4]; Isaria fumosorosea, 1 d): 97.0% | spore viability [%] after 1 m (27 d) ([4]; Isaria fumosorosea, 27 d): 53.0% | spore viability [%] after 3 m (87-92 d) ([3]; Purpureocillium lilacinum): 88.4% | spore viability after storage for 2 or 3 months, respectively ([3]; Purpureocillium lilacinum): ≥ 80% | spore viability [%] at day 1 ([3]; Purpureocillium lilacinum, 1 d): 98.8% | spore viability [%] after 5 w (35 d) [3, 6]: 98.2%

CCCCOCCO [Butylcellosolve, Ethylenglycolmonobutylether, reference compound]
decline in spore viability at day 1 and after storage ([3]; text summary of Table I): steep decline in spore viability

Polyethyleneglycol-400 monolaurate [Radiasurf 7423]
spore viability [%] after 1 m (27 d) [4]: 42.3% | spore viability [%] after 2 w (~14 d) [4]: 58.0% | spore viability [%] at day 1 [4]: 86.7% | spore viability [%] after 1 m (27-28 d) [3]: 93.8% | spore viability [%] after 2 m (51-55 d) [3]: 79.7% | spore viability [%] after 2 w (12-15 d) [3]: 91.4% | spore viability [%] after 7 m (210 d) [3]: 36.9% | spore viability [%] at day 1 [3]: 90.8% | spore viability after storage for 2 or 3 months, respectively [3]: ≥ 80%

CCCCOCCOCCOCCO [Triethylenglycol monobutylether, Triethylenglycol-monobutylether]
spore viability [%] after 1 m (27-28 d) ([3]; Purpureocillium lilacinum): 57.5% | spore viability [%] after 3 m (87-92 d) ([3]; Purpureocillium lilacinum): 50.8% | spore viability [%] at day 1 ([3]; Purpureocillium lilacinum, 1 d): 77.5%
